Assay results taken from patent US20240115574A1, “INHIBITION OF nSMase FOR THE TREATMENT OF HUMAN IMMUNODEFICIENCY VIRUS INFECTION” (The Johns Hopkins University, priority 2018, published 2024).
Like-named read-outs stand apart in the source and are kept apart here.

Assays:
[1] = molecular target: nSMase2 (Homo sapiens (Human), UniProt Q9NY59); assay: nSMase2 inhibition (Tables 1A, 1B); assay type: biochemical
[2] = system: HIV Rf in H9 cells; assay: HIV replication in HIV-infected H9 cells, P24 ELISA of culture supernatants; assay type: cell-based; settings: H9 cells infected with HIV, dose response
Protocol: Controls included no-treatment and vehicle. Cell viability and P24 were measured every 24 h for 4 days.

[3] = system: HIV1-Ada; assay: HIV-infected humanized mice (hu-NSG), viral load and cell populations; assay type: in vivo
Protocol: Humanization of NSG mice was determined 20 weeks following transplantation by flow cytometry (Miltenyl Biotec) using human specific antibodies directed against hCD45-APC (Leukocytes; Thermo Fisher), hCD3-PE (T cells; Biolegend), hCD14-PE/Cy7 (Macrophage; Biolegend), hCD19-BV421 (B cells; Biolegend). Percent humanization was calculated as a ratio for each of the human antibodies to a mouse specific antibody directed against mCD45-FITC (eBioscience). Mice>5% humanization (in each cell category) were included for experiments.
Reaction included a non-template control, non-enzyme control and sample was analyzed on an Applied Biosystem 7300 Real-Time PCR system (Life Technology). […] The dissociation stage was 95° C. for 15 sec, 60° C. for 1 min and 95° C. for 15 sec.
Drugs were reconstituted in 5% DMSO, 5% Tween-80 and 90% saline. Control mice injected with vehicle consisting of 5% DMSO, 5% Tween-80 in saline.

[4] = system: HIV in U1 cells; assay: HIV replication (p24) in TNF-α-stimulated U1 cells; assay type: cell-based; settings: TNF-α 500 ng/mL, 0.1 μM-10 μM, 12 h, 24 h, 48 h
Protocol: (§1) Quantification of HIV replication (p24 levels) in medium (top) and cell viability (bottom) of H9 cells (FIG. 4A), U1 cells (FIG. 4B), and human primary CD4+ cells (FIG. 4C) treated with nSMase2 inhibitor, MS882 (31). […] HIV replication and cell viability were measured at 12 h, 24 h, and 48 h after treatment of MS882 (31). Data are mean±S.D of n=3 per independent experiments/condition. *=p<0.05; **=p<0.01; ***=p<0.001 compared to uninfected control (H9 cells, primary human CD4+ cells), or non-TNFα-induced control (U1 cells). #=p<0.05; ##=p<0.01; ###=p<0.001 compared to HIV-infected or TNF-α-induced cells. One-Way ANOVA with Tukey post-hoc comparisons;

[5] = system: HIV-MN in primary human CD4+ cells; assay: HIV replication (p24) in human primary CD4+ cells; assay type: cell-based; settings: HIV-MN 200 ng/mL, 0.1 μM-10 μM, 12 h, 24 h, 48 h
Protocol: as §1

[6] = system: H9 cells and U1 cells; assay: Electron microscopy of HIV-infected H9 cells and TNF-α-stimulated U1 cells; assay type: cell-based; settings: 10 μM for 6 h
Protocol: Representative electron microscope images of H9 cells (FIG. 6A) and U1 cells (FIG. 6B) treated with MS882 (31) (10 μM) for 6 h following HIV infection (H9 cells) or TNF-α stimulation (U1 cells). […] Scale bar, 1 μm;

[7] = system: ceramides; assay: Plasma ceramides in HIV-infected humanized mice; assay type: in vivo; settings: 10 mg/Kg for 6 weeks
Protocol: Quantifications of multiple ceramides in plasma from uninfected humanized mice, HIV-infected humanized mice administered MS882 (31) (10 mg/Kg) or vehicle for 6 weeks. Data are mean±S.D of n=4-6 per group. *=p<0.05; **=p<0.01; ***=p<0.001 compared to uninfected humanized mice #=p<0.05; ##=p<0.01 compared to HIV-infected mice administered vehicle. One-Way ANOVA with Tukey post-hoc comparisons; Experimental drugs were delivered intraperitoneally at a dose of 10 mg/kg once daily beginning 5 weeks after HIV infection for a duration of 6 weeks. Drugs were reconstituted in 5% DMSO, 5% Tween-80 and 90% saline. Control mice injected with vehicle consisting of 5% DMSO, 5% Tween-80 in saline.

[8] = system: HIV-1 Tat-regulated firefly luciferase reporter in TZM/Bl cells; settings: dose response
[9] = nSMase2 inhibitors of formula (I), Table 1A, read-out: IC50
[10] = nSMase2, compounds of formula (II), Table 1B, read-out: Activity* (IC50 category)
[11] = daily administration for 6 weeks

Sequence of nSMase2 (Q9NY59 whole entry, species assumed): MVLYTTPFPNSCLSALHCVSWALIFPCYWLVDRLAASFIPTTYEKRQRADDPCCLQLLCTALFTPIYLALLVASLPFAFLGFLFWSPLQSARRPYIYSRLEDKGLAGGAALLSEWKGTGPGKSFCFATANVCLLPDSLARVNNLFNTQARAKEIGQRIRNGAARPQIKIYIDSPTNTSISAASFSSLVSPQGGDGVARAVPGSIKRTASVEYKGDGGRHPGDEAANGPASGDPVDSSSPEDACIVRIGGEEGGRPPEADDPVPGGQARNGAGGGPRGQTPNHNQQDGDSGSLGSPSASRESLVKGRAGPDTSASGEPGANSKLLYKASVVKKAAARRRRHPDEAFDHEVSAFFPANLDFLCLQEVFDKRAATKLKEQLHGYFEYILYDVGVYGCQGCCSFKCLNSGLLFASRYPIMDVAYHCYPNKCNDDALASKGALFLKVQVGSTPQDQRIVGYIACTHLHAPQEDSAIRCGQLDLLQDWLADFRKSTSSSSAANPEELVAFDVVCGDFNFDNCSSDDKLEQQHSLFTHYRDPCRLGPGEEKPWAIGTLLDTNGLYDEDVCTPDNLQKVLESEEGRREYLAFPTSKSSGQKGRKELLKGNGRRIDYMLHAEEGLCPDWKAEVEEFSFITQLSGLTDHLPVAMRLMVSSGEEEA

Row | Compound | IC50 [1, 9] | IC50 [1, 10] | further results
1 | CC(=O)N[C@@H]1CCN(c2cc(Cl)nn3cc(C)nc23)C1 [9-PROV] | > 100 µM | – | –
2 | CC(=O)N[C@@H]1CCN(c2ccnn3cc(C)nc23)C1 [15-PROV] | > 10 µM | – | –
3 | CC(=O)Nc1cccc(-c2c(C)nc3c(N4CC[C@@H](NC(C)=O)C4)cc(C)nn23)c1 [22-PROV] | > 1 µM | – | –
4 | CC(=O)N[C@@H]1CCN(c2cc(C)nn3c(I)c(C)nc23)C1 [23-PROV] | > 10 µM | – | –
5 | COc1ccc(-c2csc3c(N4CC[C@@H](NC(C)=O)C4)nc(Cl)nc23)cc1OC [24-PROV] | – | > 100 µM | –
6 | COc1ccc(-c2c(C)sc3c(N4CC[C@@H](NC(C)=O)C4)nc(Cl)nc23)cc1OC [25-PROV] | – | > 100 µM | –
7 | COc1ccc(-c2csc3c(N4CC[C@@H](NC(C)=O)C4)ncnc23)cc1OC [27-PROV] | – | > 100 µM | –
8 | COc1ccc(-c2c(C)sc3c(N4CC[C@@H](NC(C)=O)C4)ncnc23)cc1OC [28-PROV] | – | > 100 µM | –
9 | COc1ccc(-c2c(C)sc3c(N4CC[C@@H](NC(C)=O)C4)nc(C)nc23)cc1OC [29a-PROV] | – | > 100 µM | –
10 | COc1ccc(-c2scc3c(N4CC[C@@H](NC(C)=O)C4)nc(C)nc23)cc1OC [29b-PROV] | – | > 100 µM | –
11 | COc1cc(N2CC[C@@H](NC(C)=O)C2)c2nc(C)c(-c3ccc(OC)c(OC)c3)n2n1 [38-PROV] | > 1 µM | – | –
12 | CC(=O)N[C@@H]1CCN(c2cc(C)nn3c(-c4ccc5c(c4)OCO5)c(C)nc23)C1 [40-PROV] | ≤ 1 µM | – | –
13 | CC(=O)N[C@@H]1CCN(c2cc(C)nn3c(-c4cccc(S(C)(=O)=O)c4)c(C)nc23)C1 [42-PROV] | > 1 µM | – | –
14 | CC(=O)N[C@@H]1CCN(c2cc(C)nn3c(-c4ccc(O)cc4)c(C)nc23)C1 [47-PROV] | ≤ 1 µM | – | –
15 | CC(=O)N[C@@H]1CCN(c2cc(C)nn3c(C)c(C)nc23)C1 [48-PROV] | > 1 µM | – | –
16 | COc1ccc(-c2c(C)nc3c(N4CC[C@@H](NC(=O)C5CCCCC5)C4)cc(C)nn23)cc1 [Entry 31] | – | – | HIV replication (P24 ELISA of culture supernatants) ([2]; listed as MS822 (31)): dose-dependently reduced HIV replication; HIV replication (P24 ELISA of culture supernatants) ([2]; listed as MS882 (31)): suppressed HIV-replication; populations of human CD14+ macrophages ([3]; 10 mg/kg daily I.P. for 6 weeks): selectively decreased populations of CD14+ macrophages; HIV RNAs in tissues (spleen, lung, liver, brain), qRT-PCR for HIV1-p24 [3, 11]: decreased; HIV+ (p24+) macrophages (hCD14+) in spleen, lung, liver, brain [3, 11]: decreased; plasma HIV viral load ([3]; daily intraperitoneal administration, HIV-infected humanized mice): reduced plasma HIV viral load; mice with plasma HIV viral load reduced to below detectable levels ([3]; daily intraperitoneal administration, individual mice): 3 out of 5; HIV replication (p24 levels in medium) [4]: suppressed HIV-replication; HIV replication (p24 levels in medium) [5]: suppressed HIV-replication; endolysosomal morphology (electron microscopy) [6]: induced enlarged endolysosomal compartments engorged with EM-dense debris; multiple ceramides in plasma [7]: decreased elevations of multiple ceramides; luciferase activity in TZM/B1 cells [8]: reduced luciferase activity in TZM/B1 cells at the highest doses tested

Continued, in another order:

Row | IC50 [1, 9] | IC50 [1, 10] | Compound | further results
17 | > 100 µM | – | COc1ccc(-c2c(C)nc3c(N4CC[C@@H](NC(C)=O)C4)cc(Cl)nn23)cc1 [11-PROV] | –
18 | > 100 µM | – | COc1cccc(-c2c(C)nc3c(N4CC[C@@H](NC(C)=O)C4)cc(Cl)nn23)c1 [14-PROV] | –
19 | > 100 µM | – | CC(=O)N[C@@H]1CCN(c2cc(Cl)nn3c(-c4ccc(F)cc4)c(C)nc23)C1 [18-PROV] | –
20 | > 100 µM | – | CC(=O)Nc1cccc(-c2c(C)nc3c(N4CC[C@@H](NC(C)=O)C4)cc(Cl)nn23)c1 [19-PROV] | –
21 | > 1 µM | – | COc1cccc(-c2c(C)nc3c(N4CC[C@@H](NC(C)=O)C4)cc(C)nn23)c1 [20-PROV] | –
22 | – | > 100 µM | COc1ccc(-c2scc3c(N4CC[C@@H](NC(C)=O)C4)nc(Cl)nc23)cc1OC [26-PROV] | –
23 | – | > 100 µM | COc1ccc(-c2csc3c(N4CC[C@@H](NC(C)=O)C4)nc(C)nc23)cc1OC [30-PROV] | –
